Experimental data from ChEMBL document CHEMBL1201862, “PubChem BioAssay data set” (2004).
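Dose response: 5 concentrations. Exposure: 48 h. Format: 96-well plates. Endpoint: linear interpolation; highest concentration if not reached. GI50: concentration for 50% inhibition of growth.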 Calls of active or inactive are those of the source. Rule as the data show it: active = GI50 up to about 1.1 µM and inactive = higher.

Columns and labels:
Test in all cases: NCI tumour cell line growth inhibition, 48 h
[1] = system: A549
[2] = system: HOP-62
[3] = system: HL-60
[4] = system: HT-29
[5] = system: TK-10
[6] = system: SNB-75
[7] = system: SK-MEL-5
[8] = system: OVCAR-8
[9] = system: K562
[10] = system: M14
[11] = system: IGROV-1
[12] = system: CAKI-1
[13] = system: SF-539
[14] = system: HCT-15
[15] = system: SK-OV-3
[16] = system: UACC-257
[17] = system: SNB-78
[18] = system: OVCAR-5

Row | Structure (SMILES) | GI50 [1] | GI50 [2] | GI50 [3] | GI50 [4] | GI50 [5] | GI50 [6] | GI50 [7] | GI50 [8] | GI50 [9] | GI50 [10] | GI50 [11] | GI50 [12] | GI50 [13] | GI50 [14] [µM] | GI50 [15] | GI50 [16] | GI50 [17] | GI50 [18]
1 | CC1C[C@@H]2C(=O)NC(=O)[C@@H]2c2c1c1ccccc1n2C (stereo not given in full) | > 100 µM (inactive) | > 100 µM (inactive) | > 100 µM (inactive) | > 100 µM (inactive) | > 100 µM (inactive) | > 100 µM (inactive) | > 100 µM (inactive) | > 100 µM (inactive) | > 100 µM (inactive) | > 100 µM (inactive) | > 100 µM (inactive) | > 100 µM (inactive) | > 100 µM (inactive) | > 100 | > 100 µM (inactive) | > 100 µM (inactive) | > 100 µM (inactive) | 
2 | C=C1C(=O)c2cc3c(cc2C(c2cc(OC)c(OC)c(OC)c2)[C@@H]1C(=O)O)OCO3 (stereo not given in full) | 80.4 µM (inactive) |  |  | 37.2 µM (inactive) | > 100 µM (inactive) | 20.5 µM (inactive) | 50.7 µM (inactive) | > 100 µM (inactive) | 32.1 µM (inactive) | 28.1 µM (inactive) | 82 µM (inactive) | 54.2 µM (inactive) | 63.7 µM (inactive) | 38 | 42.6 µM (inactive) | 67 µM (inactive) | 49.1 µM (inactive) | 
3 | N#Cc1cccc(N2C(=O)c3ccc(C(=O)c4ccc5c(c4)C(=O)N(c4cccc(C#N)c4)C5=O)cc3C2=O)c1 | > 100 µM (inactive) | > 100 µM (inactive) | > 100 µM (inactive) | > 100 µM (inactive) | > 100 µM (inactive) | 35.6 µM (inactive) | > 100 µM (inactive) | > 100 µM (inactive) | > 100 µM (inactive) | > 100 µM (inactive) | > 100 µM (inactive) | > 100 µM (inactive) | > 100 µM (inactive) | > 100 | > 100 µM (inactive) | > 100 µM (inactive) | > 100 µM (inactive) | > 100 µM (inactive)
4 | NC(CCCC(N)P(=O)(O)O)P(=O)(O)O (stereo not given) | > 100 µM (inactive) |  |  | > 100 µM (inactive) | > 100 µM (inactive) | > 100 µM (inactive) | > 100 µM (inactive) | > 100 µM (inactive) | > 100 µM (inactive) | > 100 µM (inactive) | > 100 µM (inactive) | > 100 µM (inactive) | > 100 µM (inactive) | > 100 | > 100 µM (inactive) | > 100 µM (inactive) | > 100 µM (inactive) | 
5 | COc1nc(=O)n(COC(CO)CN2C(=O)c3ccccc3C2=O)cc1Cc1cccc(OCc2ccccc2)c1 (stereo not given) | 23.5 µM (inactive) |  | 21.1 µM (inactive) | 34 µM (inactive) | 27 µM (inactive) | 15.5 µM (inactive) | 15.7 µM (inactive) | 34.5 µM (inactive) | 24.9 µM (inactive) | 20.4 µM (inactive) | 24.8 µM (inactive) |  | 16.6 µM (inactive) | 28.2 | 26.5 µM (inactive) |  | 31.6 µM (inactive) | 
6 | CN1c2ccccc2N(C)C2C1N(C)c1ccccc1N2C (stereo not given) | 26.8 µM (inactive) | 34.3 µM (inactive) | 2.29 µM (inactive) | 7.78 µM (inactive) | 36.9 µM (inactive) | 6.9 µM (inactive) | 3.72 µM (inactive) | 18.6 µM (inactive) | 3.42 µM (inactive) | 18.2 µM (inactive) | 20.7 µM (inactive) | 15.1 µM (inactive) | 15.3 µM (inactive) | 4.25 |  | 6.67 µM (inactive) | 18.9 µM (inactive) | 59.3 µM (inactive)
7 | O=C1CC(O)(c2ccccc2)C(c2ccccc2)=C1c1ccccc1 (stereo not given) | 39.1 µM (inactive) | 38.2 µM (inactive) | 24.3 µM (inactive) | 42.8 µM (inactive) | 81.5 µM (inactive) | 27.8 µM (inactive) | 39.6 µM (inactive) | 47 µM (inactive) | 30.5 µM (inactive) | 35.4 µM (inactive) | 44 µM (inactive) | 31.3 µM (inactive) |  | 32.3 | > 100 µM (inactive) | 31.5 µM (inactive) | 73.6 µM (inactive) | > 100 µM (inactive)
8 | COc1cc2c(cc1OC)C(=O)Cc1ccc(OC)c(OC)c1CN(C)CC2 | > 100 µM (inactive) | > 100 µM (inactive) |  | > 100 µM (inactive) | > 100 µM (inactive) | > 100 µM (inactive) | > 100 µM (inactive) | > 100 µM (inactive) | > 100 µM (inactive) | > 100 µM (inactive) | > 100 µM (inactive) | > 100 µM (inactive) | > 100 µM (inactive) | > 100 | > 100 µM (inactive) | > 100 µM (inactive) | > 100 µM (inactive) | > 100 µM (inactive)
